Assay results from patent publication US5556744A, “Methods and compositions for diagnosing and treating certain HIV infected patients” (The Trustees of the University of Pennsylvania, priority 1994, dated 1996).

How the values were obtained:
Set-up in all cases: species or system human
[1] = tested on: maternal serum samples (antibodies); assay: ELISA peptide-binding of maternal sera, expanded peptide collection (Example 5); settings: for Binding / reactivity of maternal sera to peptide (in words): Example 5
Source text: The gp120 and gp41 peptides used in this experiment include peptides 60 [SEQ ID NO:9], 93 [SEQ ID NO:10], 94 [SEQ ID NO:1], 95 [SEQ ID NO:11], 96 [SEQ ID NO:12], 97 [SEQ ID NO:13], 59 [SEQ ID NO:14], 106 [SEQ ID NO:15], 107 [SEQ ID NO:[…]], 1029/33 [SEQ ID NO:2], p18p [SEQ ID NO:17], B138 [SEQ ID NO:3], 466 [SEQ ID NO:4], 497 [SEQ ID NO:18], 117 [SEQ ID NO:19], F560 [SEQ ID NO:20], 35 [SEQ ID NO:5], 120 [SEQ ID NO:21], 121 [SEQ ID NO:22], 123 [SEQ ID NO:23], 36 [SEQ ID NO:24], 40 [SEQ ID NO:25], 41 [SEQ ID NO:26], 649 [SEQ ID NO:6], 53 [SEQ ID NO:7], 55 [SEQ ID NO:27], 128 [SEQ ID NO:28], 129 [SEQ ID NO:29], 132 [SEQ ID NO:30], 57 [SEQ ID NO:8], and 1103/55 [SEQ ID NO:31] from Table 2. These peptides were synthesized based on the same HIV IIIB isolate as were the peptides of Table 2. Alternative designations for these peptides are provided in brackets.
Each of the peptides was at least 85% pure, making them suitable for ELISA analyses. The average length of these peptides was 18 amino acid residues, which allows for a certain degree of local flexibility and conformational folding, thus facilitating detection of antibody species with reactivities to shaped structures.
The maternal serum samples were obtained from the Mothers/Infants Cohort Study described in Example 1. For the ELISA peptide-binding analyses performed essentially as described in Example 3, maternal serum samples were diluted to 1:50 or 1:500 with blocking buffer (1% bovine serum albumin in phosphate-buffered saline containing 0.05% Tween 20). Binding was measured using 10 μg/mL peptide per well and was considered positive if the experimental/control OD450nm ratio was ≥2. Normal (HIV seronegative) human sera were used as controls.

[2] = tested on: maternal sera (antibodies); assay: ELISA peptide-binding of maternal sera (Example 6); settings: for Number of Non-Transmitters which bound to peptide / Percent of Non-Transmitters which bound to peptide: N = 12; for Number of Transmitters which bound to peptide / Percent of Transmitters which bound to peptide: N = 4
Outline: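 Third-trimester maternal sera, from HIV-1 transmitting and non-transmitting mothers, were tested by ELISA against ~16-residue peptides spanning HIV-1 external and transmembrane glycoproteins. Each serum was run with at least 40 peptides, and values are the percentage of sera binding each peptide.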

[3] = tested on: maternal HIV+ sera (antibodies); assay: RIA / ELISA binding of maternal HIV+ sera to gp120 and gp41 peptides (Example 3); settings: for Percent of the maternal serum samples that bound to the peptide: all 20 samples; for Correlation of peptide recognition with lack of vertical transmission: in words
Outline: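 Peptides were coated at 10 μg/ml in carbonate buffer pH 9.6 and blocked with 1% BSA. Sera at 1:50 and 1:500 were incubated overnight at 4°C and detected with ¹²⁵I anti-human IgG (RIA) or HRP/TMB at OD450 (ELISA). Specific binding was taken as peptide minus no-peptide wells, scored as a ratio to normal human serum.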

[4] = Serum No. 1, Non-Transmission Group
[5] = Serum No. 2, Non-Transmission Group
[6] = Serum No. 3, Non-Transmission Group
[7] = Serum No. 4, Transmission Group
[8] = Serum No. 5, Transmission Group
[9] = Serum No. 6, Non-Transmission Group
[10] = Serum No. 7, Non-Transmission Group
[11] = Serum No. 8, Non-Transmission Group
[12] = Serum No. 9, Non-Transmission Group
[13] = Serum No. 10, Transmission Group
[14] = Serum No. 11, Non-Transmission Group
[15] = Serum No. 12, Non-Transmission Group
[16] = Serum No. 13, Transmission Group
[17] = Serum No. 14, Transmission Group
[18] = Serum No. 15, Transmission Group
[19] = Serum No. 16, Non-Transmission Group
[20] = Serum No. 17, Non-Transmission Group
[21] = Serum No. 18, Non-Transmission Group
[22] = Serum No. 19, Transmission Group
[23] = Serum No. 20, Non-Transmission Group

| Substance | Binding / reactivity of maternal sera to peptide (in words) [1] | Number of Non-Transmitters which bound to peptide [2] | Percent of Non-Transmitters which bound to peptide [2] [%] | Number of Transmitters which bound to peptide [2] | Percent of Transmitters which bound to peptide [2] [%] | Binding of maternal HIV+ serum to peptide (sera/NHS ratio) [3, 4] | Binding of maternal HIV+ serum to peptide (sera/NHS ratio) [3, 5] | Binding of maternal HIV+ serum to peptide (sera/NHS ratio) [3, 6] | Binding of maternal HIV+ serum to peptide (sera/NHS ratio) [3, 7] | Binding of maternal HIV+ serum to peptide (sera/NHS ratio) [3, 8] | Binding of maternal HIV+ serum to peptide (sera/NHS ratio) [3, 9] | Binding of maternal HIV+ serum to peptide (sera/NHS ratio) [3, 10] | Binding of maternal HIV+ serum to peptide (sera/NHS ratio) [3, 11] | Binding of maternal HIV+ serum to peptide (sera/NHS ratio) [3, 12] | Binding of maternal HIV+ serum to peptide (sera/NHS ratio) [3, 13] | Binding of maternal HIV+ serum to peptide (sera/NHS ratio) [3, 14] | Binding of maternal HIV+ serum to peptide (sera/NHS ratio) [3, 15] | Binding of maternal HIV+ serum to peptide (sera/NHS ratio) [3, 16] | Binding of maternal HIV+ serum to peptide (sera/NHS ratio) [3, 17] | Binding of maternal HIV+ serum to peptide (sera/NHS ratio) [3, 18] | further results |
| --- | --- | --- | --- | --- | --- | --- | --- | --- | --- | --- | --- | --- | --- | --- | --- | --- | --- | --- | --- | --- | --- |
| 56: gp41 peptide, amino acids 747-767, HIV strain IIIB, SEQ ID NO: 156 (RLVNGSLALIWDDLRSLCLFS) [Peptide 56] | recognized by the transmission group | 0 | 0 | 0 | 0 | – | – | – | – | – | – | – | – | – | – | – | – | – | – | – | Percent of both groups that bound to the peptide ([1]; transmission and non-transmission groups): more than 50% |
| 58: gp41 peptide, amino acids 794-817, HIV strain IIIB, SEQ ID NO: 173 (KYWWNLLQYWSQELKNSAVSLLNA) [Peptide 58] | recognized by the transmission group | 3 | 25 | 0 | 0 | – | – | – | – | – | – | – | – | – | – | – | – | – | – | – | – |
| CQNQQEKNEQELLEL [Peptide 649] | recognized by the transmission group | 7 | 43.8 | 2 | 50 | ++ (which value is greater than 3) | + (which value is between 2 to 3) | + (which value is between 2 to 3) | + (which value is between 2 to 3) | - (specific OD450 or cpm of sera sample binding to peptide divided by the specific OD450 or cpm of NHS sample binding to peptide, which value is less than 2) | ++ (which value is greater than 3) | ++ (which value is greater than 3) | ++ (which value is greater than 3) | - (specific OD450 or cpm of sera sample binding to peptide divided by the specific OD450 or cpm of NHS sample binding to peptide, which value is less than 2) | - (specific OD450 or cpm of sera sample binding to peptide divided by the specific OD450 or cpm of NHS sample binding to peptide, which value is less than 2) | ++ (which value is greater than 3) | ++ (which value is greater than 3) | - (specific OD450 or cpm of sera sample binding to peptide divided by the specific OD450 or cpm of NHS sample binding to peptide, which value is less than 2) | + (which value is between 2 to 3) | + (which value is between 2 to 3) | Difference in binding of samples from transmission vs non-transmission group (Spearman rank-order correlation) ([3]; Example 3): significant statistical difference; Binding of maternal HIV+ serum to peptide (sera/NHS ratio) [3, 19]: - (specific OD450 or cpm of sera sample binding to peptide divided by the specific OD450 or cpm of NHS sample binding to peptide, which value is less than 2); Binding of maternal HIV+ serum to peptide (sera/NHS ratio) [3, 20]: + (which value is between 2 to 3); Binding of maternal HIV+ serum to peptide (sera/NHS ratio) [3, 21]: + (which value is between 2 to 3); Binding of maternal HIV+ serum to peptide (sera/NHS ratio) [3, 22]: - (specific OD450 or cpm of sera sample binding to peptide divided by the specific OD450 or cpm of NHS sample binding to peptide, which value is less than 2); Binding of maternal HIV+ serum to peptide (sera/NHS ratio) [3, 23]: - (specific OD450 or cpm of sera sample binding to peptide divided by the specific OD450 or cpm of NHS sample binding to peptide, which value is less than 2); Percent of the maternal serum samples that bound to the peptide [3]: 70%; Correlation of peptide recognition with lack of vertical transmission [3]: correlated with non-transmission status; Correlation of peptide recognition with lack of vertical transmission ([3]; listed as SEQ ID NO: 6): clearly correlated to non-transmission status |
| NATAIAVAEGTDRVIEVVQGAYRAI [1103/55] | recognized by the transmission group | 0 | 0 | 0 | 0 | - (specific OD450 or cpm of sera sample binding to peptide divided by the specific OD450 or cpm of NHS sample binding to peptide, which value is less than 2) | ++ (which value is greater than 3) | - (specific OD450 or cpm of sera sample binding to peptide divided by the specific OD450 or cpm of NHS sample binding to peptide, which value is less than 2) | ++ (which value is greater than 3) | - (specific OD450 or cpm of sera sample binding to peptide divided by the specific OD450 or cpm of NHS sample binding to peptide, which value is less than 2) | ++ (which value is greater than 3) | ++ (which value is greater than 3) | ++ (which value is greater than 3) | - (specific OD450 or cpm of sera sample binding to peptide divided by the specific OD450 or cpm of NHS sample binding to peptide, which value is less than 2) | - (specific OD450 or cpm of sera sample binding to peptide divided by the specific OD450 or cpm of NHS sample binding to peptide, which value is less than 2) | - (specific OD450 or cpm of sera sample binding to peptide divided by the specific OD450 or cpm of NHS sample binding to peptide, which value is less than 2) | ++ (which value is greater than 3) | - (specific OD450 or cpm of sera sample binding to peptide divided by the specific OD450 or cpm of NHS sample binding to peptide, which value is less than 2) | ++ (which value is greater than 3) | - (specific OD450 or cpm of sera sample binding to peptide divided by the specific OD450 or cpm of NHS sample binding to peptide, which value is less than 2) | Binding of maternal HIV+ serum to peptide (sera/NHS ratio) [3, 19]: - (specific OD450 or cpm of sera sample binding to peptide divided by the specific OD450 or cpm of NHS sample binding to peptide, which value is less than 2); Binding of maternal HIV+ serum to peptide (sera/NHS ratio) [3, 20]: ++ (which value is greater than 3); Binding of maternal HIV+ serum to peptide (sera/NHS ratio) [3, 21]: ++ (which value is greater than 3); Binding of maternal HIV+ serum to peptide (sera/NHS ratio) [3, 22]: - (specific OD450 or cpm of sera sample binding to peptide divided by the specific OD450 or cpm of NHS sample binding to peptide, which value is less than 2); Binding of maternal HIV+ serum to peptide (sera/NHS ratio) [3, 23]: - (specific OD450 or cpm of sera sample binding to peptide divided by the specific OD450 or cpm of NHS sample binding to peptide, which value is less than 2); Percent of the maternal serum samples that bound to the peptide [3]: 45% |
